The results in this text go back to patent publication US20060094765A1, “Use of a sri and vitamin b6 for the treatment of neurological and mental disorders” (Pantarhei Bioscience B.V., priority 2002, published 2006).

Assay [1] has as its system chronically, mildly stressed rats. The experiment in a line: Chronic mild stress (CMS) model of depression, sucrose consumption. Particulars: stressed rats, n=8, alone or with pyridoxine 10 mg/kg. It counts as in vivo, Male Wistar rats. From the text:
(§1) Chronic mild stress (CMS), a well-validated preclinical model of depression (Willner, 1997, Validity, reliability and utility of the chronic mild stress model of depression: a 10-year review and evaluation. Psychopharmacology, 134, 319-329, […] et al., 2002, Preclinical models: status of basic research in depression, Soc. Biol. Psych., 52, 503-528), was used to study the effects of combined therapy of SRI with pyridoxine on responder rate and the time to achieve a full drug response ('onset of action') as compared to treatment with SRI alone. Citalopram, as an example of a SRI, was combined with either pyridoxine or vehicle and administered to chronically, mildly stressed rats during a 5-week treatment schedule. Consumption of sucrose solution after fasting, which a commonly accepted measure of anhedonia, i.e. inability to experience pleasure, was chosen for readout, since this is a core symptom of human depressive disorders. Male Wistar rats were brought into the laboratory two months before the start of the experiment for acclimatization and training (see below). During this period, the animals were singly housed and were maintained on a 12-h light/dark cycle (lights on at 08.00) at a constant temperature of 22±2° C. and humidity (55±5%). Food pellets (containing an optimal level of 1 mg/kg pyridoxine) and water were freely available, with the exception of the deprivation procedure as described below. During a period of 5 weeks, rats were trained to consume a 1% sucrose solution. Training consisted of ten 1-h baseline tests (twice weekly) in which sucrose was presented, in the home cage, following 14 h of food and water deprivation. Sucrose intake was measured by weighing pre-weighed bottles containing the sucrose solution, at the end of the test. Subsequently, sucrose consumption was monitored, under similar conditions, at weekly intervals throughout the whole experiment. […] Mean values in sucrose consumption during stress and subsequently the 5 weeks of vehicle and drug treatment in control and stressed animals were calculated. […]

Assay in assay [2]: as above
It counts as in vivo, Male Wistar rats. Particulars: unstressed control rats; citalopram 2.5 or 5.0 mg/kg, alone or with pyridoxine 10 mg/kg, i.p. daily, 5 weeks.
Description: as §1

For the molecule `CN(C)CCCC1(c2ccc(F)cc2)OCc2cc(C#N)ccc21` (stereo not drawn) [citalopram], the “responder rate (rats exhibiting increased sucrose intake)” value in assay [1] (citalopram 2.5 mg/kg i.p. daily for 5 weeks) is 50%; in assay [1] (citalopram 5.0 mg/kg i.p. daily for 5 weeks) it was 62.5%. In addition, the “effect on sucrose intake in control animals” value in assay [2] is reported as “no significant effect”.
